Measurements as given in patent EP4608400B1, “COMPOUND FOR TREATMENT OF PAIN” (Initiator Pharma A/S, priority 2022, dated 2024).
Entries after “also recorded” stand apart in the source; their conditions may differ. Like-named read-outs stand apart in the source and are kept apart here.

Assays:
Dopamine (DA) = test: Microdialysis studies in mice brain (cortex, striatum); assay type: in vivo; conditions: 10 mg/kg s.c., n=1-2
Protocol: In a small subset of mice, microdialysis was performed with a probe placed in either the striatum or cortex by use of stereotaxis.

[1] = Phase I ascending single oral dose study: pharmacokinetics; assay type: in vivo, human; conditions: for Tmax / half-life: human, in vivo, po; for Tmax: single oral dose, postdose
Protocol: (§1) Study design. The study was a Phase I, randomised, double-blind, placebo-controlled, ascending single oral dose, safety, tolerability, pharmacokinetic (PK) and pharmacodynamics (PD) study of IP2015 in healthy male subjects.
(§2) Each subject received one oral dose of IP2015 or matched placebo. […] The dose level was to be escalated to a maximum of 0.05 mg in Cohort 2 and a maximum of 0.2 mg in Cohort 3. The doses in the remaining five cohorts were to be determined based on the dose escalation criteria.
Subjects were required to attend the clinical research unit (CRU) for a screening visit within 28 days prior to dosing. […] All subjects remained in the CRU until Day 3 (48 hours postdose) for the collection of safety assessments, PK blood and urine samples, and CNS assessments.
Study Drug, Dose and Mode of Administration. IP2015 and matched placebo were provided as a powder in bottles for oral solution. […] Reconstitution was performed by a pharmacist at the clinical site prior to dosing.
The dose was taken with 240 mL of water at room temperature. Subjects/participants were fasted overnight prior to dosing until 4 hours postdose. Water was allowed ad libitum except for 1 hour before and 1 hour after dosing.
(§3) The doses used in each cohort were as follows: • Cohort 1 - 0.01 mg • Cohort 2 - 0.05 mg • Cohort 3 - 0.2 mg • Cohort 4 - 0.6 mg • Cohort 5 - 1.8 mg • Cohort 6 - 5.4 mg • Cohort 7 - 16.2 mg • Cohort 8 - 10 mg
The study also evaluated plasma PK concentrations and parameters including but not limited to: area under the plasma concentration vs time curve (AUC), from time zero to the last quantifiable concentration (AUC0-t), AUC from zero to infinity (AUC0-∞), observed maximum plasma concentration (Cmax), time to reach maximum plasma concentration (tmax) and terminal elimination half-life (T1/2) in healthy male subjects.
Statistical methods. Safety parameters were listed and summarised using descriptive statistics. Pharmacokinetic parameter estimates were calculated using noncompartmental methods. Pharmacokinetic data were listed for each subject/patient and summarised by descriptive statistics.
Dose proportionality was analysed for Part A with a linear regression model using the logarithm of a PK parameter as responsible variable and the logarithm of the dose as the independent variable. The linear regression model can be expressed as: Log(yi) = α + β*log dosei + εi [formula] where α is the intercept, dosei is the actual dose of IP2015 for the ith subject and εi is the (within subject) random error in observing yi.
The above model was applied to the following PK parameters; AUC0-t, AUC0-∞ and Cmax. Based on the linear regression model, the dose proportionality coefficient (slope) and its two-sided 90% confidence interval (CI) were estimated. Dose proportionality was declared if the 90% CI for the slope was completely contained in the following range16: 1+log(0.5)/log(r), 1+log(2)/log(r), where r is the high dose/low dose.

[2] = Phase I ascending single oral dose study: safety and tolerability; assay type: in vivo, human
Protocol: as §1, §2
The randomisation schemes were generated by a statistician using SAS PROC Plan.
as §3
Evaluation. The study evaluated the clinical safety data from adverse event (AE) reporting, 12-lead electrocardiogram (ECG), cardiac telemetry, vital signs (standing and supine blood pressure (BP), heart rate (HR), oral temperature and clinical laboratory evaluations (chemistry, haematology, urinalysis) and physical examinations in healthy male subjects.

SMILES: COc1cc2ccc(O[C@@H]3C[C@H]4CC[C@@H](C3)N4)cc2oc1=O [IP2015, exo-7-[(8-azabicyclo[3.2.1]octan-3-yl)oxy]-3-methoxy-chromen-2-one]
- Dopamine (DA) elevation in cortex (Dopamine (DA)): increased; also recorded: most pronounced
- Dopamine (DA) elevation in striatum (Dopamine (DA)): less and only some elevation
- Plasma concentrations of IP2015 ([1]; 0.01 mg and 0.05 mg single oral dose, all subjects): below the LLOQ
- subjects with plasma concentrations below the LLOQ ([1]; 0.2 mg single oral dose): 3/7
- Tmax ([1]; read-out: tmax (range across all dose levels)): 1 to 6 h
- Tmax ([1]; range of medians across doses, read-out: Median tmax): 2.25 to 5 h
- half-life ([1]; 0.6 mg, calculated for 1/6 subjects, read-out: mean t½ (converted)): 14.5 h
- half-life ([1]; 1.8 mg, calculated for 3/6 subjects, read-out: mean t½ (converted)): 16.1 h
- half-life ([1]; 5.4 mg to 16.2 mg doses, range of means, read-out: mean T½): 23.1 to 26.3 h
- incidence of TEAEs ([2]; 0.01 mg to 10 mg dose range): relatively low
- mean ECG parameters ([2]; 0.01 mg to 10 mg dose range): no significant treatment- or dose-related trends
- vital sign values, mean or individual subject ([2]; 0.01 mg to 10 mg dose range): no significant treatment- or dose-related trends
- incidence of side effects compared to the 0.01 mg to 10 mg dose range ([2]; 16.2 mg): increased
- subjects with sustained tachycardia for several hours ([2]; 16.2 mg): 2 subjects
- subjects reporting at least one TEAE ([2]; 16.2 mg dose group (all subjects of the group)): 4 subjects
- standing pulse rate ([2]; 16.2 mg, 2, 3, 4, 6, 8, 10 and 12 hours postdose): increases from baseline
- supine pulse rate ([2]; 16.2 mg, 6, 8 and 10 hours postdose): increases from baseline
- heart rate (ECG) ([2]; 16.2 mg, 8 and 12 hours postdose): increases from baseline
- subjects experiencing TEAEs ([2]; of the 40 subjects who received IP2015, all dose groups): 16 subjects
- total TEAEs ([2]; the 40 subjects who received IP2015, all dose groups): 32 TEAEs
